pIC50: −log10 of the molar value.
Tests used:
Cannabinoid receptor 1 [1] = target: T1, Cannabinoid receptor 1 (Homo sapiens, UniProt P21554); details: CHO, at 10 µM
Cannabinoid receptor 1 [2] = target: T1, Cannabinoid receptor 1; assay type: functional, cell-based, CHO
Cannabinoid receptor 2 [3] = target: T2, Cannabinoid receptor 2 (Homo sapiens, UniProt P34972); assay: Antagonist activity at CB2 receptor (unknown origin) stably expressed in CHO cells co-expressing co-expressing Ga15/16 assessed as calcium current after 45 mins by fluo-4 AM assay; assay type: functional, cell-based
T2 sequence (P34972 whole entry): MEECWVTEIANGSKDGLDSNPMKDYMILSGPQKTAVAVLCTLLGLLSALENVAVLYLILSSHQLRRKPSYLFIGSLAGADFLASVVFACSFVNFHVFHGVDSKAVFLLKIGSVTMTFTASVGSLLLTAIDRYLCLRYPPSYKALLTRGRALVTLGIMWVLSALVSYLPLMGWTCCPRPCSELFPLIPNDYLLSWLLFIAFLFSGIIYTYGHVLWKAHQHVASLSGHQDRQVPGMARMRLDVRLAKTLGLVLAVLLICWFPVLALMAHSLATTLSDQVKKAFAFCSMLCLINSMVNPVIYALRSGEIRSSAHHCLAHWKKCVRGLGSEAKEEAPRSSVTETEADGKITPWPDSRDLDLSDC

Cannabinoid receptor 2 [4] = target: T2, Cannabinoid receptor 2; assay: Antagonist activity at CB2 receptor (unknown origin) stably expressed in CHO cells co-expressing co-expressing Ga15/16 assessed as calcium current at 10 uM after 45 mins by fluo-4 AM assay relative to basal control; assay type: functional, cell-based

T1 sequence (P21554 whole entry): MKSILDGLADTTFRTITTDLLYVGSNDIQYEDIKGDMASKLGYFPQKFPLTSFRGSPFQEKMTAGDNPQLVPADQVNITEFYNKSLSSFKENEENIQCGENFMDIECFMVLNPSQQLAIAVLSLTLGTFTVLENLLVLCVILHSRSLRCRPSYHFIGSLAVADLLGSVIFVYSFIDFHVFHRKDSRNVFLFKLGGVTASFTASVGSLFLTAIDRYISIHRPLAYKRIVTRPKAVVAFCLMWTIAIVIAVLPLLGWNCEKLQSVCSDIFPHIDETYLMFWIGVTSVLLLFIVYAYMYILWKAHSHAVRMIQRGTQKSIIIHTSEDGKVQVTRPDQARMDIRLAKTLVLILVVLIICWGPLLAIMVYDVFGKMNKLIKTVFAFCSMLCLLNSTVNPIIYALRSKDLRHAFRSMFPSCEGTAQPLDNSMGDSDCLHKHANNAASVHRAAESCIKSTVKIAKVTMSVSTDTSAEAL

| SMILES | inhibition (Cannabinoid receptor 1 [1]) [%] | pIC50 (Cannabinoid receptor 1 [2]) | pIC50 (Cannabinoid receptor 2 [3]) | inhibition (Cannabinoid receptor 2 [4]) [%] |
| --- | --- | --- | --- | --- |
| COc1ccc(-n2c(-c3ccc(Cl)cc3)nn(C(=O)NC3CCCCC3)c2=O)cc1 | 98.6 | 6.41 | 5.82 | 94 |
| Cc1ccc(Cn2c(-c3ccc(C)cc3)nn(C(=O)Nc3ccc(Cl)cc3)c2=O)cc1 | 89 | 5.43 |  | 29.9 |
| Cc1ccc(-c2nn(C(=O)NC3CCCCC3)c(=O)n2-c2ccc(Cl)cc2)cc1 | 98.2 | 5.68 |  | 58.5 |
| COc1ccc(-c2nn(C(=O)Nc3ccc(Cl)cc3)c(=O)n2-c2ccc(C)cc2)cc1 | 90.5 | 5.33 |  | 43.6 |
| COc1ccc(-c2nn(C(=O)NC3CCCCC3)c(=O)n2-c2ccc(C)cc2)cc1 | 98 | 5.74 | 5.39 | 131 |
| CCCCCOc1c(OC)ccc2cc(C(=O)NCc3ccc4c(c3)OCO4)c(=O)[nH]c12 | 37.6 |  |  | 130 |
| Cc1ccc(-n2c(-c3ccc(Cl)cc3)nn(C(=O)NC3CCCCC3)c2=O)cc1 | 102 | 6.65 |  | 46.4 |
| COc1ccc(-c2nn(C(=O)Nc3ccc(C)cc3)c(=O)n2-c2ccc(Cl)cc2)cc1 | 96.6 | 5.64 |  | 74 |
| Cc1ccc(NC(=O)n2nc(-c3ccc(C)cc3)n(-c3ccc(Cl)cc3)c2=O)cc1 | 91.9 | 6.02 |  |  |
| COc1ccc(-n2c(-c3ccc(Cl)cc3)nn(C(=O)Nc3ccc(C)cc3)c2=O)cc1 | 74.6 | 5.07 | 4.70 | 85.6 |
| Cc1ccc(Cn2c(-c3ccc(Cl)cc3)nn(C(=O)Nc3ccc(C)cc3)c2=O)cc1 | 36.8 |  |  |  |
| Cc1ccc(Cn2c(-c3ccc(C)cc3)nn(C(=O)NC3CCCCC3)c2=O)cc1 | 60.9 | 4.75 | 5.30 | 132 |
| Cc1ccc(Cn2c(-c3ccc(Cl)cc3)nn(C(=O)NC3CCCCC3)c2=O)cc1 | 42.6 |  | 5.71 | 87.7 |
| COc1ccc(-c2nn(C(=O)NC3CCCCC3)c(=O)n2-c2ccc(Cl)cc2)cc1 | 96.5 | 6.06 | 5.22 | 124 |

— ChEMBL document CHEMBL3120110, “Design, synthesis, biological evaluation, and comparative docking study of 1,2,4-triazolones as CB1 receptor selective antagonists” (Eur J Med Chem, 2014)
